Reference: paper PMC5864910, “Mutacin 1140 Lantibiotic Variants Are Efficacious Against Clostridium difficile Infection” (Frontiers in Microbiology, 2018)
≈ marks a conversion by molar mass, not a printed value. Where two headings read alike, the source gives them in different places. No end group written: not given here.

Assays:
[1] = test system: NMDA ion channel receptor; assay: Safety Screen 44: NMDA; type: binding, human
[2] = test system: Kv Channel; assay: Safety Screen 44: Kv Channel; type: binding, human
[3] = test system: Mycobacterium phlei
[4] = test system: BZD (central); assay: Safety Screen 44: BZD (central); type: binding, human
[5] = test system: HepG2 human hepatocellular carcinoma cells
Description: The HepG2 cytotoxicity evaluation was performed by MB Research Labs (Spinnerstown, PA, United States) by the Neutral Red Uptake Bioassay of HepG2 human hepatocellular carcinoma cells in culture (ATCC #HB-8065). Briefly, HepG2 cells were seeded in the central 60 wells of 96-well plates and maintained in culture for approximately 24 h. Following pre-incubation, the culture medium was replaced with culture medium containing increasing concentrations of the test articles or control in the vehicle. Test articles were tested in triplicate wells, and reported as the mean. The cells were incubated for 24 h and cell viability was determined by Neutral Red (NR) uptake. For this assay, the medium was then replaced with NR medium (50 μg/mL NR in Hanks’ Balance Salt Solution, HBSS) and the cells were incubated for an additional 3 h. Following uptake of NR, the medium was discarded, the wells were washed with HBSS, and lysing solution (50:49:1 ethanol:water:acetic acid) was added subsequently to each well. The plates were placed on a rocker for 30 min until NR had been extracted from the cells and formed a homogeneous solution. The absorbance of each well was measured at 540 nm on a μQuant^TM plate reader (Bio-Tek Instruments) using KCjunior^TM software. The mean of the outer wells (DMEM2-FBS) was used as a reference control. The mean percent viability was determined for each concentration compared to the vehicle-treated control.

[6] = test system: Nav Channel; assay: Safety Screen 44: Nav Channel; type: binding, human
[7] = test system: Ca2+ Channel; assay: Safety Screen 44: Ca2+ Channel; type: binding, human
[8] = test system: BZD (central); assay: Safety Screen 44: BZD (central); type: binding, human; remark: listed apart in the source
[9] = test system: Nav Channel; assay: Safety Screen 44: Nav Channel; type: binding, human; remark: listed apart in the source
[10] = test system: Ca2+ Channel; assay: Safety Screen 44: Ca2+ Channel; type: binding, human; remark: listed apart in the source
[11] = test system: Kv Channel; assay: Safety Screen 44: Kv Channel; type: binding, human; remark: listed apart in the source
[12] = test system: Pseudomonas aeruginosa; assay: MIC broth dilution, P. aeruginosa; type: cell-based
[13] = test system: Streptococcus pneumonia; assay: microbe, parasite or virus in culture; conditions: Streptococcus pneumoniae, read-out: MIC to S. pneumoniae
[14] = test system: Staphylococcus aureus; conditions: n = 5 strains; unit from method b19
[15] = test system: Clostridium difficile; conditions: n = 3 strains; unit from method b19
[16] = test system: C. difficile UNT103-1; assay: Cannulated Syrian hamster efficacy/relapse model of C. difficile infection (cHCDAD); type: in vivo, Golden Syrian hamsters; conditions: vancomycin 20 mg/Kg QD × 5 days, ileal canula, n = 6
[17] = test system: Mycobacterium phlei; assay: microbe, parasite or virus in culture; conditions: Mycolicibacterium phlei
[18] = test system: C. difficile; design: method as in McBride and Sonenshein, 2011; conditions: ref McBride and Sonenshein, 2011, cited from earlier work

Q: Which “Cerep SafetyScreen 44 % Inhibition NMDA” value ([1]; […]) does the source give for `C=C1NC(=O)[C@H](Cc2c[nH]c3ccccc23)NC(=O)[C@H](NC(=O)[C@H](CCCCN)NC(=O)[C@@H](N)Cc2ccccc2)CSC[C@@H](C(=O)N[C@H]2C(=O)N3CCC[C@H]3C(=O)NCC(=O)N[C@H](C(=O)N[C@@H](C)C(=O)N[C@@H](CCCNC(=N)N)C(=O)N/C(=C\C)C(=O)NCC(=O)N[C@@H]3CSC[C@@H]4NC(=O)[C@H](Cc5ccc(O)cc5)NC(=O)[C@@H](CS/C=C\NC4=O)NC(=O)[C@H](CC(N)=O)NC(=O)[C@H](Cc4ccc(O)cc4)NC3=O)CS[C@H]2C)NC(=O)[C@H](CC(C)C)NC1=O` [F17Y] here?
A: 12%

Q: And the “Cerep SafetyScreen 44 % Inhibition Kv Channel” value [2]?
A: 2%

Q: And the Minimum Inhibitory Concentration Mycobacterium phlei [3]?
A: 2 µg/mL

Q: What about the “Cerep SafetyScreen 44 % Inhibition BZD (central)” value [4] of the same molecule?
A: -10%

Q: What about the HepG2 EC50 ([5]; HepG2 cytotoxicity) of the same molecule?
A: 514 µg/mL

Q: What about the “Cerep SafetyScreen 44 % Inhibition Nav Channel” value [6] of the same molecule?
A: 2%

Q: What about the “Cerep SafetyScreen 44 % Inhibition Ca2+ Channel” value [7] of the same molecule?
A: -7%

Q: Which “Cerep SafetyScreen 44 % Inhibition NMDA” value [1] does the source give for `C=C1NC(=O)[C@H](Cc2c[nH]c3ccccc23)NC(=O)[C@H](NC(=O)[C@H](CCCCN)NC(=O)[C@@H](N)Cc2ccccc2)CSC[C@@H](C(=O)N[C@H]2C(=O)N3CCC[C@H]3C(=O)NCC(=O)N[C@H](C(=O)N[C@@H](C)C(=O)N[C@@H](CCCNC(=N)N)C(=O)N/C(=C\C)C(=O)NCC(=O)N[C@@H]3CSC[C@@H]4NC(=O)[C@H](Cc5ccc(O)cc5)NC(=O)[C@@H](CS/C=C\NC4=O)NC(=O)[C@H](CC(N)=O)NC(=O)[C@H](Cc4ccccc4)NC3=O)CS[C@H]2C)NC(=O)[C@H](C)NC1=O` [L6A] here?
A: 15%

Q: What about the “Cerep SafetyScreen 44 % Inhibition BZD (central)” value [8] of the same molecule?
A: -6%

Q: And the “Cerep SafetyScreen 44 % Inhibition Nav Channel” value [9]?
A: 8%

Q: And the Minimum Inhibitory Concentration Mycobacterium phlei [3]?
A: 4 µg/mL

Q: What about the HepG2 EC50 ([5]; HepG2 cytotoxicity) of the same molecule?
A: 466 µg/mL

Q: And the “Cerep SafetyScreen 44 % Inhibition Ca2+ Channel” value [10]?
A: 3%

Q: And the “Cerep SafetyScreen 44 % Inhibition Kv Channel” value [11]?
A: 8%

Q: For `C=C1NC(=O)[C@H](Cc2c[nH]c3ccccc23)NC(=O)[C@H](NC(=O)[C@H](CCCCN)NC(=O)[C@@H](N)Cc2ccccc2)CSC[C@@H](C(=O)N[C@H]2C(=O)N3CCC[C@H]3C(=O)NCC(=O)N[C@H](C(=O)N[C@@H](C)C(=O)N[C@@H](CCCNC(=N)N)C(=O)N/C(=C\C)C(=O)NCC(=O)N[C@@H]3CSC[C@@H]4NC(=O)[C@H](Cc5ccc(O)cc5)NC(=O)[C@@H](CS/C=C\NC4=O)NC(=O)[C@H](CC(N)=O)NC(=O)[C@H](Cc4ccccc4)NC3=O)CS[C@H]2C)NC(=O)[C@H]([C@@H](C)O)NC1=O` [L6T], which Minimum Inhibitory Concentration Mycobacterium phlei [3] is on record?
A: 4 µg/mL

Q: What about the HepG2 EC50 ([5]; 24 h) of the same molecule?
A: 541 µg/mL

Q: Which MIC [12] does the source give for `CC1COc2c(N3CCN(C)CC3)c(F)cc3c(=O)c(C(=O)O)cn1c23` (stereo not drawn) [Ofloxacin] here?
A: 1000 µg/mL (≈ 2770 µM)

Q: Which results are given for `C=C1NC(=O)[C@H](Cc2c[nH]c3ccccc23)NC(=O)[C@H](NC(=O)[C@H](CCCCN)NC(=O)[C@@H](N)Cc2ccccc2)CSC[C@@H](C(=O)N[C@H]2C(=O)N[C@@H](Cc3c[nH]cn3)C(=O)NCC(=O)N[C@H](C(=O)N[C@@H](C)C(=O)N[C@@H](CCCNC(=N)N)C(=O)N/C(=C\C)C(=O)NCC(=O)N[C@@H]3CSC[C@@H]4NC(=O)[C@H](Cc5ccc(O)cc5)NC(=O)[C@@H](CS/C=C\NC4=O)NC(=O)[C@H](CC(N)=O)NC(=O)[C@H](Cc4ccccc4)NC3=O)CS[C@H]2C)NC(=O)[C@H](CC(C)C)NC1=O` [P9H]?
A: Minimum Inhibitory Concentration Mycobacterium phlei [3]: 4 µg/mL; HepG2 EC50 ([5]; 24 h): 218 µg/mL

Q: With `C=C1NC(=O)[C@H](Cc2c[nH]c3ccccc23)NC(=O)[C@H](NC(=O)[C@H](CCCCN)NC(=O)[C@@H](N)Cc2ccccc2)CSC[C@@H](C(=O)N[C@H]2C(=O)N3CCC[C@H]3C(=O)NCC(=O)N[C@H](C(=O)N[C@@H](C)C(=O)N[C@@H](C)C(=O)N/C(=C\C)C(=O)NCC(=O)N[C@@H]3CSC[C@@H]4NC(=O)[C@H](Cc5ccc(O)cc5)NC(=O)[C@@H](CS/C=C\NC4=O)NC(=O)[C@H](CC(N)=O)NC(=O)[C@H](Cc4ccccc4)NC3=O)CS[C@H]2C)NC(=O)[C@H](CC(C)C)NC1=O` [R13A] as the molecule, how does the Minimum Inhibitory Concentration Mycobacterium phlei [3] read?
A: 8 µg/mL

Q: Which Minimum Inhibitory Concentration Mycobacterium phlei [3] does the source give for `C=C1NC(=O)[C@H](Cc2c[nH]c3ccccc23)NC(=O)[C@H](NC(=O)[C@H](CCCCN)NC(=O)[C@@H](N)Cc2ccccc2)CSC[C@@H](C(=O)N[C@H]2C(=O)N3CCC[C@H]3C(=O)NCC(=O)N[C@H](C(=O)N[C@@H](C)C(=O)N[C@@H](CC(C)C)C(=O)N/C(=C\C)C(=O)NCC(=O)N[C@@H]3CSC[C@@H]4NC(=O)[C@H](Cc5ccc(O)cc5)NC(=O)[C@@H](CS/C=C\NC4=O)NC(=O)[C@H](CC(N)=O)NC(=O)[C@H](Cc4ccccc4)NC3=O)CS[C@H]2C)NC(=O)[C@H](CC(C)C)NC1=O` [R13L] here?
A: 8 µg/mL

Q: With `C=C1NC(=O)[C@H](C)NC(=O)[C@H](NC(=O)[C@H](CCCCN)NC(=O)[C@@H](N)Cc2ccccc2)CSC[C@@H](C(=O)N[C@H]2C(=O)N3CCC[C@H]3C(=O)NCC(=O)N[C@H](C(=O)N[C@@H](C)C(=O)N[C@@H](CCCNC(=N)N)C(=O)N/C(=C\C)C(=O)NCC(=O)N[C@@H]3CSC[C@@H]4NC(=O)[C@H](Cc5ccc(O)cc5)NC(=O)[C@@H](CS/C=C\NC4=O)NC(=O)[C@H](CC(N)=O)NC(=O)[C@H](Cc4ccccc4)NC3=O)CS[C@H]2C)NC(=O)[C@H](CC(C)C)NC1=O` [W4A] as the molecule, how does the Minimum Inhibitory Concentration Mycobacterium phlei [3] read?
A: 2 µg/mL

Q: What about the “HepG2 EC50” value ([5]; 24 h) of the same molecule?
A: > 1001

Q: For `C=C1NC(=O)[C@H](C(C)C)NC(=O)[C@H](NC(=O)[C@H](CCCCN)NC(=O)[C@@H](N)Cc2ccccc2)CSC[C@@H](C(=O)N[C@H]2C(=O)N3CCC[C@H]3C(=O)NCC(=O)N[C@H](C(=O)N[C@@H](C)C(=O)N[C@@H](CCCNC(=N)N)C(=O)N/C(=C\C)C(=O)NCC(=O)N[C@@H]3CSC[C@@H]4NC(=O)[C@H](Cc5ccc(O)cc5)NC(=O)[C@@H](CS/C=C\NC4=O)NC(=O)[C@H](CC(N)=O)NC(=O)[C@H](Cc4ccccc4)NC3=O)CS[C@H]2C)NC(=O)[C@H](CC(C)C)NC1=O` [W4V], which Minimum Inhibitory Concentration Mycobacterium phlei [3] is on record?
A: 4 µg/mL

Q: And the “HepG2 EC50” value ([5]; 24 h)?
A: > 1002

Q: For `CC1(C)S[C@@H]2[C@H](NC(=O)[C@H](N)c3ccccc3)C(=O)N2[C@H]1C(=O)O` [ampicillin], which MIC [13] is on record?
A: 1 µg/mL (≈ 2.86 µM)

Q: For `CN[C@H](CC(C)C)C(=O)N[C@H]1C(=O)N[C@@H](CC(N)=O)C(=O)N[C@H]2C(=O)N[C@H]3C(=O)N[C@H](C(=O)N[C@H](C(=O)O)c4cc(O)cc(O)c4-c4cc3ccc4O)[C@H](O)c3ccc(c(Cl)c3)Oc3cc2cc(c3O[C@@H]2O[C@H](CO)[C@@H](O)[C@H](O)[C@H]2O[C@H]2C[C@](C)(N)[C@H](O)[C@H](C)O2)Oc2ccc(cc2Cl)[C@H]1O` [vancomycin], which “MIC against S. aureus (range)” value [14] is on record?
A: 0.125 to 2 µg/mL

Q: What about the “MIC against C. difficile (range)” value [15] of the same molecule?
A: 0.5 to 4 µg/mL

Q: What about the “survival at day 21” value [16] of the same molecule?
A: 33%

Q: And the MIC ([17]; read-out: MIC, M. phlei)?
A: 0.25 µg/mL (≈ 0.173 µM)

Q: And the MIC ([17]; read-out: Minimum Inhibitory Concentration Mycobacterium phlei)?
A: 250 µg/mL (≈ 173 µM)

Q: What does the source list for “gallidermin (IASKFLCTPGCAKTGSFNSYCC; thioether (positions not given here); also: lanthionine/methyllanthionine bridges, places not given here; UniProt P21838 31-52, looked up) [lantibiotic cited from literature]”?
A: MIC increase of C. difficile ([18]; cpr resistance): 2–4 fold; MIC of C. difficile ([18]; level after MIC increase (cpr)): ~1 µg/mL
